This test deals with ATX (human His-tagged) (Homo sapiens (Human), UniProt Q13822). The test is described as follows: Human ATX enzyme inhibition assay (fluorescence quenching, MR121 substrate). In kind it is biochemical. The conditions noted are these: 30 nM ATX, 1 μM MR121 substrate, 30° C., pH 8.0. Summed up: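 Tris-HCl buffer at pH 8.0 contained 140 mM NaCl, 5 mM KCl, 1 mM each CaCl2 and MgCl2, and 0.01% Triton X-100. The MR121 substrate (1 μM final) was incubated with enzyme for 15 min at 30 °C, and activity was read by fluorescence quenching.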

In general, IC50 refers to the concentration needed to halve the response being measured. Low readings indicate inhibition by little substance, high ones a need for much substance. Regarding `O=C(/C=C/c1ccc(OC(F)(F)F)cc1)N1C[C@@H]2CN(C(=O)c3ccc4[nH]nnc4c3)C[C@@H]2C1` [Example 15, (E)-1-((3aR,6aS)-5-(1H-Benzo[d][1,2,3]triazole-5-carbonyl)hexahydropyrrolo[3,4-c]pyrrol-2(1H)-yl)-3-(4-(trifluoromethoxy)phenyl)prop-2-en-1-one], the midpoint of inhibition, the IC50, lay at 26 nM. In other words, the double-digit nanomolar range.

On to `O=C(OCCC12CC3CC(CC(C3)C1)C2)N1C[C@@H]2CN(C(=O)c3ccc4[nH]nnc4c3)C[C@@H]2C1` [Example 4.17, (3aS,6aR)-5-(1H-benzotriazole-5-carbonyl)-hexahydro-pyrrolo[3,4-c]pyrrole-2-carboxylic acid 2-adamantan-1-yl-ethyl ester], for which it took 799 nM to reach half-maximal inhibition (IC50).

Regarding `O=C(OCc1cc(Cl)cc(Cl)c1)N1C[C@@H]2CCN(C(=O)c3ccc4[nH]nnc4c3)C[C@@H]2C1` (relative stereo) [Example 4.08, cis-3,5-dichlorobenzyl 5-(1H-benzo[d][1,2,3]triazole-5-carbonyl)hexahydro-1H-pyrrolo[3,4-c]pyridine-2(3H)-carboxylate], the IC50 was 47 nM.

Take `CN(Cc1cnn[nH]1)C(=O)N1C[C@H]2CCN(C(=O)/C=C/c3ccc(OC(F)(F)F)cc3)CC[C@H]2C1` [Example 9.07, (3aR,8aS)-N-((1H-1,2,3-triazol-5-yl)methyl)-N-methyl-6-((E)-3-(4-(trifluoromethoxy)phenyl)-acryloyl)octahydro-pyrrolo[3,4-d]azepine-2(1H)-carboxamide]: half-maximal inhibition (IC50) was put at 74 nM.

Consider `O=C(OCc1cc(Cl)cc(Cl)c1)N1C[C@@H]2CN(C(=O)c3ccc4[nH]c(=O)oc4c3)C[C@@H]2C1` [Example 2.01, (3aR,6aS)-3,5-dichlorobenzyl 5-(2-oxo-2,3-dihydrobenzo[d]oxazole-6-carbonyl)hexahydropyrrolo[3,4-c]pyrrole-2(1H)-carboxylate], for which 5 nM corresponded to half-maximal inhibition (IC50).

The compound `O=C(/C=C/c1ccc(OC(F)(F)F)cc1)N1CC[C@@H]2CN(C(=O)N3CCc4[nH]cnc4C3)C[C@@H]2CC1` [Example 9.06] displayed an IC50 of 247 nM. Compared with the last compound, the IC50 is about 49-fold higher.

The compound `O=C(OCc1cc(Cl)cc(Cl)c1)N1C[C@H]2C[C@@H](Oc3ccc4[nH]c(=O)oc4c3)C[C@H]2C1` [Example 3.01, (3aR,5r,6aS)-3,5-Dichlorobenzyl 5-(2-oxo-2,3-dihydrobenzo[d]oxazol-6-yloxy)hexahydrocyclopenta[c]pyrrole-2(1H)-carboxylate] gave an IC50 of 1090 nM. This IC50 lies about 4.4-fold higher than the previous one.

Take `CS(=O)(=O)c1cc(COC(=O)N2C[C@@H]3CN(C(=O)c4ccc5[nH]nnc5c4)C[C@@H]3C2)cc(C(F)(F)F)c1` [Example 4.07, (3aS,6aR)-5-(1H-benzotriazole-5-carbonyl)-hexahydro-pyrrolo[3,4-c]pyrrole-2-carboxylic acid 3-methanesulfonyl-5-trifluoromethyl-benzyl ester]: the half-inhibitory concentration (IC50) is 16 nM.

With `O=C(OCC1CCCCC1)N1C[C@@H]2CN(C(=O)c3ccc4[nH]nnc4c3)C[C@@H]2C1` [Example 4.19, (3aS,6aR)-5-(1H-benzotriazole-5-carbonyl)-hexahydro-pyrrolo[3,4-c]pyrrole-2-carboxylic acid cyclohexyl methyl ester], half-maximal inhibition (IC50) required 1580 nM.

With `O=C(c1cnc(OCC2CC2)c(Br)c1)N1C[C@@H]2CN(C(=O)c3ccc4[nH]nnc4c3)C[C@H]2C1` [Example 19.41, ((3aS,6aS)-5-(1H-benzo[d][1,2,3]triazole-5-carbonyl)hexahydropyrrolo[3,4-c]pyrrol-2(1H)-yl)(5-bromo-6-(cyclopropylmethoxy)pyridin-3-yl)methanone], the IC50 is 685 nM.

Consider `O=C(CCc1ccc(OC(F)(F)F)cc1)N1C[C@@H]2CN(C(=O)c3ccc4[nH]nnc4c3)C[C@@H]2C1` [Example 15.13], for which 114 nM corresponded to half-maximal inhibition (IC50).

As to `O=C(/C=C/c1ccc(-c2ccccn2)cc1)N1C[C@@H]2CN(C(=O)c3ccc4[nH]nnc4c3)C[C@H]2C1` [Example 15.81, (E)-1-[(3aR,6aR)-5-(1H-benzotriazole-5-carbonyl)-hexahydro-pyrrolo[3,4-c]pyrrol-2-yl]-3-(4-pyridin-2-yl-phenyl)-prop-2-en-1-one], half-maximal inhibition (IC50) required 19 nM.

For the compound `O=C(CCc1ccc(-c2cccnc2)cc1)N1C[C@@H]2CN(C(=O)c3ccc4[nH]nnc4c3)C[C@H]2C1` [Example 17.12, 1-[(3aR,6aR)-5-(1H-benzotriazole-5-carbonyl)-hexahydro-pyrrolo[3,4-c]pyrrol-2-yl]-3-(4-pyridin-3-yl-phenyl)-propan-1-one], half-maximal inhibition (IC50) was put at 32 nM.

`O=C(/C=C/c1ccc(OC(F)(F)F)c(F)c1)N1CC[C@@H]2CN(C(=O)c3ccc4[nH]nnc4c3)C[C@@H]2CC1` [Example 1.15, (E)-1-((3aR,8aS)-2-(1H-benzo[d][1,2,3]triazole-5-carbonyl)octahydropyrrolo[3,4-d]azepin-6(7H)-yl)-3-(3-fluoro-4-(trifluoromethoxy)phenyl)prop-2-en-1-one] gave a half-maximal inhibitory concentration (IC50) of 1 nM.

In the case of `O=C(c1cc2ccccc2c(OCC(F)(F)F)n1)N1C[C@@H]2CN(C(=O)[C@@H]3CCc4[nH]nnc4C3)C[C@H]2C1` [Example 19.28, [(3aS,6aS)-5-[(5R)-4,5,6,7-tetrahydro-1H-benzotriazole-5-carbonyl]-1,3,3a,4,6,6a-hexahydropyrrolo[3,4-c]pyrrol-2-yl]-[1-(2,2,2-trifluoroethoxy)isoquinolin-3-yl]methanone], half-maximal inhibition (IC50) was put at 2 nM.

For the compound `O=C(OCc1ccc(OC(F)(F)F)cc1)N1C[C@@H]2CN(C(=O)c3ccc4[nH]nnc4n3)C[C@H]2C1` [Example 4.42, (3aS,6aS)-5-(1H-[1,2,3]triazolo[4,5-b]pyridine-5-carbonyl)-hexahydro-pyrrolo[3,4-c]pyrrole-2-carboxylic acid 4-trifluoromethoxy-benzyl ester], half-maximal inhibition (IC50) required 24 nM. Against the preceding compound, the IC50 is about 12-fold higher.

`Cc1cc(OCC(=O)N2C[C@@H]3CN(C(=O)c4ccc5[nH]nnc5c4)C[C@H]3C2)c(C(C)C)cc1Cl` [Example 15.64]: half-maximal inhibition (IC50) required 5 nM.

As to `O=C(/C=C/c1cccc(OC(F)(F)F)c1)N1C[C@H]2CCN(C(=O)c3ccc4[nH]nnc4c3)CC[C@H]2C1` [Example 15.20], it took 49 nM to reach half-maximal inhibition (IC50).

In turn, `O=C(OCc1cc(Cl)cc(Cl)c1)N1C[C@@H]2CN(S(=O)(=O)c3ccc4[nH]c(=O)oc4c3)C[C@@H]2C1` [Example 7, (3aR,6aS)-3,5-Dichlorobenzyl 5-(2-oxo-2,3-dihydrobenzo[d]oxazol-6-ylsulfonyl)hexahydropyrrolo[3,4-c]pyrrole-2(1H)-carboxylate] displayed an IC50 of 22 nM.

Compound `O=C(/C=C/c1ccc(-c2ccccc2)nc1)N1C[C@@H]2CN(C(=O)c3ccc4[nH]nnc4c3)C[C@H]2C1` [Example 15.77] returned an IC50 of 8 nM.

As for `O=C(COc1ccccc1C(F)(F)F)N1C[C@@H]2CN(C(=O)c3ccc4[nH]nnc4c3)C[C@H]2C1` [Example 15.87], the IC50 came to 103 nM.

Compound `O=C(/C=C/c1ccc(OC(F)(F)F)cc1)N1C[C@@H]2CN(C(=O)c3ccc4[nH]nnc4c3)C[C@H]2C1` [Example 15.12] had an IC50 of 6 nM.

With `O=C(/C=C/c1ccc(-c2ccncc2)cc1)N1C[C@@H]2CN(C(=O)c3ccc4[nH]nnc4c3)C[C@H]2C1` [Example 15.79, (E)-1-[(3aR,6aR)-5-(1H-benzotriazole-5-carbonyl)-hexahydro-pyrrolo[3,4-c]pyrrol-2-yl]-3-(4-pyridin-4-yl-phenyl)-prop-2-en-1-one], half-maximal inhibition (IC50) required 135 nM.

The record behind these values is patent US10669268B2, “Bicyclic derivatives” (Hoffmann-La Roche Inc., priority 2012, dated 2020).
